Results: article PMC7744439 (European journal of medicinal chemistry, 2020)
Where two headings read alike, the source gives them in different places.

Tests used:
HDAC2 = HDAC2 (Homo sapiens, UniProt Q92769); assay: HDAC2 enzymatic inhibition; assay type: biochemical
HDAC1 = HDAC1 (Homo sapiens, UniProt Q13547); assay: HDAC1 enzymatic inhibition; assay type: biochemical
HDAC6 [1] = biological target: T1, HDAC6 (Homo sapiens, UniProt Q9UBN7); assay: HDAC6 enzymatic inhibition; assay type: biochemical
T1 sequence (Q9UBN7 1-1215): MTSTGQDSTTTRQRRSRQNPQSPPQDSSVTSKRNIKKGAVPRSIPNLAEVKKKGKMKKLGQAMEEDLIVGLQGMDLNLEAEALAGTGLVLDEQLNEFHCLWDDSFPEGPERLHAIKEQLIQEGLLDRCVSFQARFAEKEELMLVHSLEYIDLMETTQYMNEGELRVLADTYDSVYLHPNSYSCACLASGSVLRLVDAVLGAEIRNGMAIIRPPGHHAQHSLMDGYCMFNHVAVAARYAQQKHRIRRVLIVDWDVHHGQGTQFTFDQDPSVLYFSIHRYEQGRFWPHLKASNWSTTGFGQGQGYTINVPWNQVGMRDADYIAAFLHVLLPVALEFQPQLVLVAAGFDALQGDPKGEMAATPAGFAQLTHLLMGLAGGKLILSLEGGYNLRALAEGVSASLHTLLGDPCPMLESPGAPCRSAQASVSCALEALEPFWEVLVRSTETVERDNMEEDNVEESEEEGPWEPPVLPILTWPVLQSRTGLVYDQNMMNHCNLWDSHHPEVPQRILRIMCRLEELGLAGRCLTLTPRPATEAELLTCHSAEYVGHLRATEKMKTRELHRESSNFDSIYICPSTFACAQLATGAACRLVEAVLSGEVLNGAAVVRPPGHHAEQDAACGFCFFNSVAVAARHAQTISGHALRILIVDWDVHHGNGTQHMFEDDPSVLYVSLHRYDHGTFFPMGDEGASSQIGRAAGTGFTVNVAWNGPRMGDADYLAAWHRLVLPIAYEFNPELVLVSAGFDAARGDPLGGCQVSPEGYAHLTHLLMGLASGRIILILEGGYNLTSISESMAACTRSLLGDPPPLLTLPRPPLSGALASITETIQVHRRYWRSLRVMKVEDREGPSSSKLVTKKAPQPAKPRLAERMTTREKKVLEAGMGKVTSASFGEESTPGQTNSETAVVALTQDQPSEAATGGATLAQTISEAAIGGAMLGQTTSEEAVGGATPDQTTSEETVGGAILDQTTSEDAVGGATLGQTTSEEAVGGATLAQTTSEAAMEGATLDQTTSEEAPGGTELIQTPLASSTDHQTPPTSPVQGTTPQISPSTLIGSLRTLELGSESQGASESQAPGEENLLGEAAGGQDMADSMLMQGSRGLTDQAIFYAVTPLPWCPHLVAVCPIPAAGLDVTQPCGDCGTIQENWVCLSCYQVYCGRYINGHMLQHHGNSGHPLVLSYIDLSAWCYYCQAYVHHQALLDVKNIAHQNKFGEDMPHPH

HDAC6 [2] = biological target: T1, HDAC6; conditions: read-out: HDAC6 IC50, cited from earlier work
[3] = mice, 400 mg/kg, IP, plasma; cited from earlier work
PC-3 tumors = conditions: cited from earlier work; for tumor growth: IP, 28 days, 0.5 mg/kg; for mortality or body-weight loss: during the treatment, 0.5 mg/kg IP
[4] = test system: Ac-H4 in spleen, brain and liver; conditions: 0.5 to 400 mg/kg, after 4 h treatment, dose-dependent; cited from earlier work
total HDACs = conditions: read-out: Total HDAC (IC50); cited from earlier work
Caco-2 cells = conditions: cited from earlier work; for permeability classification: moderately permeable = 2 × 10^−6 cm/s < Papp(A–B) < 20 × 10^−6 cm/s
[5] = test system: prostate cancer cells (PC-3 and LNCap); conditions: cited from earlier work
[6] = test system: nonmalignant cells (267-B1 and RWPE-1); conditions: cited from earlier work
[7] = IP, cited from earlier work; for behavior of the mice: 0.5 to 400 mg/kg
primary cortical neurons [8] = conditions: cited from earlier work; for neuroprotection: at 10 μM
hAPP 3 × Tg mice = conditions: 50 mg/kg, IP, four weeks, cited from earlier work
[9] = test system: monomorphic malignant human glioma cells (A172, U373MG, and T98G); conditions: cited from earlier work
primary cortical neurons [10] = conditions: 5 μM, 24 h; cited from earlier work
[11] = test system: N2a cells overexpressing hAPP; conditions: 5 μM, 24 h; cited from earlier work
dendritic spine density = conditions: 50 mg/kg, IP; cited from earlier work
HDAC8 = biological target: T2, HDAC8 (Homo sapiens, UniProt Q9BY41); conditions: read-out: HDAC8 IC50; cited from earlier work
T2 sequence (Q9BY41 1-377): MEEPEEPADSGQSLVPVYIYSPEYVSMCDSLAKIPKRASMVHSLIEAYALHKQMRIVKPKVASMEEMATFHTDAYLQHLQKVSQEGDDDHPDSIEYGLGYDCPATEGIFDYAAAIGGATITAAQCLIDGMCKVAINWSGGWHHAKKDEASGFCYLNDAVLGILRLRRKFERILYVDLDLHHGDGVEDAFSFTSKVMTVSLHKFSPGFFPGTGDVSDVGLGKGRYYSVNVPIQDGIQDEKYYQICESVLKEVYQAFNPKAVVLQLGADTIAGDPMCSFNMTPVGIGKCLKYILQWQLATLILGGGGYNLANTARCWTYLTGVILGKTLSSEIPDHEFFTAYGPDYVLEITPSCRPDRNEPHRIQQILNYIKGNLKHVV

Sequence of HDAC1 (Q13547 whole entry, species assumed): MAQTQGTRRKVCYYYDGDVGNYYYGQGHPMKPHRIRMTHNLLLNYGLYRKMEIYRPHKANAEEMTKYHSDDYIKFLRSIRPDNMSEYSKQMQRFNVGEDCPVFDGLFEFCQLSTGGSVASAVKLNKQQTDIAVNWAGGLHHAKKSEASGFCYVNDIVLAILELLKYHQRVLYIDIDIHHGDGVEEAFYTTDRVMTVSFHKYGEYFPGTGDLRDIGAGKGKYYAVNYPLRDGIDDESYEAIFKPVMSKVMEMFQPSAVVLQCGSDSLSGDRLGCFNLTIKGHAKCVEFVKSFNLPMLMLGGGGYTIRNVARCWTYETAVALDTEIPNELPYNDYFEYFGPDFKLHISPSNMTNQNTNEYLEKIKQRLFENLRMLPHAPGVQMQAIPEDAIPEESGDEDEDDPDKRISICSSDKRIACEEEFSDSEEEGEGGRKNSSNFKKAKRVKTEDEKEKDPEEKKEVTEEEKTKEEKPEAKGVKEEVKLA
Sequence of HDAC2 (Q92769 whole entry, species assumed): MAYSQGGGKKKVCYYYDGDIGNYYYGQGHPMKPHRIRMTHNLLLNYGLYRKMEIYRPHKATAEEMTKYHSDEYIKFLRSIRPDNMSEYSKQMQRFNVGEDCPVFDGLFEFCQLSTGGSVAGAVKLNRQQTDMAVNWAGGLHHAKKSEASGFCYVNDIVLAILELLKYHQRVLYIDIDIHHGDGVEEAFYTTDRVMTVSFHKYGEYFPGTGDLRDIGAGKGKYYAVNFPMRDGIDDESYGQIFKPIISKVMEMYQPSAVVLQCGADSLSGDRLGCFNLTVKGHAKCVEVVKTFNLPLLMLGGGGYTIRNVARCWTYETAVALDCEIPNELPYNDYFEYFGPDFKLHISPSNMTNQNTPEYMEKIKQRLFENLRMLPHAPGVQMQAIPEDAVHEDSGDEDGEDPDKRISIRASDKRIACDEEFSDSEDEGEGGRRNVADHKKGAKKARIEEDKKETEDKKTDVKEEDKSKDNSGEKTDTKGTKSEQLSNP

O=C(CS)NCCCCCC(=O)Nc1ccccc1 [Compound 11]
IC50 (HDAC2): > 30000 nM
IC50 (HDAC1): 3760 nM
IC50 (HDAC6 [1]): 340 nM
SI, HDAC1/6 selectivity index (HDAC6 [1]; HDAC1/HDAC6, text prints -folds): 11.1

CN(C)c1ccc(C(=O)NCCCCCNC(=O)CS)cc1 [Compound 20]
IC50 (HDAC6 [2]; Table 1): 110 nM
CL [3]: 4.87 ± 0.2 L/h
tumor growth (PC-3 tumors): significant inhibition on the tumor growth
mortality or body-weight loss (PC-3 tumors): no mortality or body-weight loss
Ac-H4 levels in the spleen [4]: significantly increased
IC50 (total HDACs): 200 nM
permeability classification (Caco-2 cells): moderately permeable
anti-proliferative effects [5]: low-micromolar levels of anti-proliferative effects
inhibitory effects on nonmalignant cells [6]: no apparent inhibitory effects
behavior of the mice [7]: remain normal

Cc1onc(-c2ccccc2)c1C(=O)NCCCCCNC(=O)CS [Compound 34]
neuroprotection (primary cortical neurons [8]): full neuroprotection

Cc1onc(-c2ccccc2)c1C(=O)NCCCCCNC(=O)[C@H](C)S [Compound 37]
prevention of glutathione depletion (primary cortical neurons [8]): ability to prevent glutathione depletion

Cc1onc(-c2ccccc2)c1COCCCCCNC(=O)[C@H](C)S [Compound 41]
prevention of glutathione depletion (primary cortical neurons [8]): ability to prevent glutathione depletion

Cc1onc(-c2ccccc2)c1C=CCCCCCNC(=O)C(C)S (stereo not drawn) [Compound 45]
neuroprotection (primary cortical neurons [8]): neuroprotective effects

Cc1noc(-c2ccccc2)c1C#CCCCCCNC(=O)C(C)S (stereo not drawn) [Compound 49]
neuroprotection (primary cortical neurons [8]): neuroprotective effects

Cc1noc(-c2cccc(F)c2)c1C#CCCCCCNC(=O)C(C)S (stereo not drawn) [Compound 50]
neuroprotection (primary cortical neurons [8]): neuroprotective effects

O=C(CS)NCCCCCC(=O)Nc1cccc2cccnc12 [Compound 63]
IC50 (HDAC6 [2]; Table 3): 90 nM
Aβ levels (hAPP 3 × Tg mice): decreased
phosphorylated tau (Thr181) levels (hAPP 3 × Tg mice): decreased
learning and memory deficits (hAPP 3 × Tg mice; aged mice (9-10-month-old)): alleviated the learning and memory deficits
CL [3]: 4.05 ± 0.15 L/h
tumor growth (PC-3 tumors): significant inhibition on the tumor growth
mortality or body-weight loss (PC-3 tumors): no mortality or body-weight loss
Ac-H4 levels in the spleen [4]: significantly increased
levels of Ac-H3 ([9]; A172 and U373MG cells): without influence
levels of Ac-Tub ([9]; A172 and U373MG cells): significantly enhanced
cell migration and invasion ([9]; A172 cells): reduced cell migration and invasion
phosphorylation of FAK/STAT3 [9]: suppress the phosphorylation of FAK/STAT3
cytotoxicity in glioma cells ([9]; concentrations up to 50 μM): did not show cytotoxicity
IC50 (total HDACs): 40 nM
increase of cell surface APP (primary cortical neurons [10]): two-fold
increase of cell surface APP [11]: two-fold
transporters responsible for the efflux (Caco-2 cells): P-glycoprotein (P-gp) and multidrug resistance-associated protein 1 (MRP1)
permeability classification (Caco-2 cells): moderately permeable
anti-proliferative effects [5]: low-micromolar levels of anti-proliferative effects
inhibitory effects on nonmalignant cells [6]: no apparent inhibitory effects
dendritic spine density (dendritic spine density): promotes dendritic spine density
time to full recovery ([7]; 400 mg/kg): ≤ 1 h
behavior of the mice [7]: incapacitated 15 min after treating

O=C(CS)NCCCCCn1ccc2cc(Cl)c(Cl)cc21 [Compound 74]
IC50 (HDAC1): > 30000 nM
IC50 (HDAC6 [1]): 2330 nM
SI, HDAC1/6 selectivity index (HDAC6 [1]): >12.8

O=C(NO)c1ccccc1 [phenylhydroxamate, reference compound]
IC50 (HDAC6 [2]): 115 nM
IC50 (HDAC8): 1900 nM
